# Assay results: patent US8841090B2 (priority 2006, dated 2014)
# “Also recorded” adds a separate entry of the source. Like-named read-outs stand apart in the source and are kept apart here.
# Assays:
# [1] = molecular target: T1, Gal2 permease (Saccharomyces cerevisiae, UniProt P13181, G90S/H392R/M8V/S50P); format: cell-based, S. cerevisiae; settings: for Competition with L-arabinose transport by Gal2 permease: competing sugars
# T1 construct: expressed in transfected cells; host or cells: S. cerevisiae BFY597 (gal2Δ::HIS3, plasmids p138 and p42)
# T1 sequence (P13181 whole entry M8V/S50P/G90S/H392R): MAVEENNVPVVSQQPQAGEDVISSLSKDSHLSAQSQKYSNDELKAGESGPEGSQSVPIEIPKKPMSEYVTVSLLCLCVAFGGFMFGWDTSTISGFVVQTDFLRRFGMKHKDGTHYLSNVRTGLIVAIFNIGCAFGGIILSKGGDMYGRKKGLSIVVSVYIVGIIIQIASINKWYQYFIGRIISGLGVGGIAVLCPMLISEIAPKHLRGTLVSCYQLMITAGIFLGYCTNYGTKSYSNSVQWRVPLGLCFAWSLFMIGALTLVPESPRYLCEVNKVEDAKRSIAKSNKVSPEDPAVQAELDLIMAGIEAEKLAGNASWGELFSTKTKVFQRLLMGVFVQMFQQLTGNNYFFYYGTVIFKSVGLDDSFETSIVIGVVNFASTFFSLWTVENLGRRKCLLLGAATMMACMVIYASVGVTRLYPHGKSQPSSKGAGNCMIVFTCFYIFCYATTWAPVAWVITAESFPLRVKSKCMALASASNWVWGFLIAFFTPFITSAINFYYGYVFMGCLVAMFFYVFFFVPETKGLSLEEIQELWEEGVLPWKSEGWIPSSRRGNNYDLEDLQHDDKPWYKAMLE
# Method: (§1) Cells are collected in mid-growth and washed twice before suspension in water at 30 mg/ml. Uptake of L-(1-^14C)arabinose (54 mCi/mmol, Moravek Biochemicals Inc.) or D-(1-^14C) galactose (57 mCi/mmol, Amersham Biosciences) is measured as previously described by Stambuk et al. (2003). Assays are performed in 30 seconds to maintain initial rates after appropriate experiments to ensure uptake is linear for at least 1 minute. […] Inhibition and competition assays are performed as previously described by Stambuk et al, (2003).
# (§2) The transport characteristics of the KmLat1 and the Gal2 transporters expressed in S. cerevisiae were compared.
# [2] = molecular target: KmLat1 transporter (Kluyveromyces marxianus, UniProt A0ABX6EN84); experiment: L-arabinose transport by KmLat1 expressed in S. cerevisiae, 14C-sugar uptake; format: cell-based; settings: for Inhibition of L-arabinose transport by KmLat1: protonophores and H+-ATPase inhibitors; for Competition with L-arabinose transport by KmLat1: competing sugars
# Sequence of KmLat1 transporter (Kluyveromyces marxianus, UniProt A0ABX6EN84) (A0ABX6EN84 entry or part of it): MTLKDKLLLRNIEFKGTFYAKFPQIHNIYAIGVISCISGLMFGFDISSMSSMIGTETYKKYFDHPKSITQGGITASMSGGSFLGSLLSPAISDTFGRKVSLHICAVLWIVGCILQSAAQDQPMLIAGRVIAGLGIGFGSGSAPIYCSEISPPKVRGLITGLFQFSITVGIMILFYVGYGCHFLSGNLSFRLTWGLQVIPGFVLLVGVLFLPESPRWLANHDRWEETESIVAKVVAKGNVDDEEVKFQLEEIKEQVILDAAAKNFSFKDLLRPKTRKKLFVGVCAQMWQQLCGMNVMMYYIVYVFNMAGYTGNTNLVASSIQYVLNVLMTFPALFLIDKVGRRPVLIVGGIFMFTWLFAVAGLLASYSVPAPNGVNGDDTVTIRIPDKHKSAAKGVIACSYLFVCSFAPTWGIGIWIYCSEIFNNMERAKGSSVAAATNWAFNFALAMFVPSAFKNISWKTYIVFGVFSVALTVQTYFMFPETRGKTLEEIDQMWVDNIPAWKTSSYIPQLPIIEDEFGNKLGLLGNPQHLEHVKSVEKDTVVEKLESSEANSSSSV
# Method: as §1, §2
# [3] = molecular target: PgLAT2 transporter (Meyerozyma guilliermondii, UniProt A5DRF8); experiment: L-arabinose transport by PgLAT2 transporter expressed in S. cerevisiae BFY605; settings: for Inhibition of L-arabinose transport by PgLAT2: protonophores and H+-ATPase inhibitors; for Competition with L-arabinose uptake by PgLAT2: competing sugars
# Method: (§3) Cells were collected in mid-growth and washed twice in water before suspension in water at about 30 mg/ml. […] Assays were performed in 5, 10, or 30 second periods to maintain initial rates. Appropriate experiments ensured uptake was linear for at least 1 minute. Transport activity was described as nmoles of labeled sugar transported per mg cell dry weight per minute.
# [4] = tested on: P. guilliermondii Y-2075; experiment: Sugar transport in wild type P. guilliermondii Y-2075 grown on L-arabinose; format: cell-based, Pichia guilliermondii
# Method: as §3
# [5] = tested on: KmLat1 transporter; experiment: L-arabinose transport by KmLat1 expressed in S. cerevisiae, 14C-sugar uptake; format: cell-based, Kluyveromyces marxianus
# Method: as §1, §2
# [6] = inhibitor NaN3 10 mM, others 5 mM, […] labeled L-arabinose, no inhibitor = 100
# [7] = inhibitor NaN3 10 mM, others 5 mM, 0.33 mM labeled L-arabinose, none = 100
# [8] = competing sugar 900 mM, 30 mM labeled L-arabinose, no sugar = 100
Compound,"Relative L-arabinose transport (%) Gal2 [1, 6]","Relative L-arabinose transport (%) KmLat1 [2, 6]",Inhibition of L-arabinose transport by KmLat1 [2],"Relative L-arabinose transport S. cerevisiae (PgLAT2 transporter) [3, 7]",Inhibition of L-arabinose transport by PgLAT2 [3],"Relative L-arabinose transport P. guilliermondii [4, 7]",Relative L-arabinose transport (%) KmLat1 [2],Relative L-arabinose transport S. cerevisiae (PgLAT2 transporter) [3],Competition with L-arabinose uptake by PgLAT2 [3],also measured
O=[N+]([O-])c1ccc(O)c([N+](=O)[O-])c1 [DNP],72%,75%,not significantly inhibited,4,significant inhibition,0,,,,
[N-]=[N+]=[N-].[Na+] [NaN3],66%,11%,not significantly inhibited,16,significant inhibition,1,,,,
C(=NC1CCCCC1)=NC1CCCCC1 [DCCD],69%,,Neither is KmLat1 inhibited,,significant inhibition,,55%,36,,Relative L-arabinose transport P. guilliermondii [4]: 22
O=C[C@H](O)[C@@H](O)[C@H](O)CO [Xylose],,,,,,,25%,0,inhibited,"Relative L-arabinose transport (%) Gal2 [1, 8]: 25%; Competition with L-arabinose transport by Gal2 permease [1]: significantly reduced; Competition with L-arabinose transport by KmLat1 [2]: out-competed; Relative L-arabinose transport P. guilliermondii [4]: 4; Reduction of uptake of labeled L-arabinose ([4]; 100× un-labeled competing sugar): 96%"
O=C[C@H](O)[C@@H](O)[C@@H](O)[C@H](O)CO [Galactose],,,,,,,,,inhibited,"Vmax for galactose transport by Gal2p ([1]; BFY597): 76 nmol/mg/min; Relative L-arabinose transport (%) Gal2 [1, 8]: 3%; Competition with L-arabinose transport by Gal2 permease [1]: significantly reduced; also recorded: out-competed; Km ([1]; read-out: Km for galactose transport by Gal2p, BFY597): 25 mM; Relative L-arabinose transport (%) KmLat1 ([5]; competing sugar 900 mM (maltose 450 mM), 30 mM labeled L-arabinose, no sugar = 100): 23%; Competition with L-arabinose transport by KmLat1 ([5]; competing sugars): out-competed"
N#CC(C#N)=NNc1cccc(Cl)c1 [CCCP],46%,,not significantly inhibited,,significant inhibition,0,61%,2,,
OC[C@H]1O[C@H](O[C@H]2[C@H](O)[C@@H](O)C(O)O[C@@H]2CO)[C@H](O)[C@@H](O)[C@@H]1O (mixture of isomers) [Maltose],,,,,,,38%,30,to a lesser extent,Competition with L-arabinose transport by KmLat1 [2]: out-competed
CC/C(=C(/CC)c1ccc(O)cc1)c1ccc(O)cc1 [DESB],81%,100%,Neither is KmLat1 inhibited,1,significant inhibition,8,,,,
